From paper PMC11212260, “Next-generation neuropeptide Y receptor small-molecule agonists inhibit mosquito-biting behavior” (Parasites & Vectors, 2024)
“And” between values parts separate entries of the source, which are not always exact repeats. Identical values can stand only once. Like-named read-outs stand apart in the source and are kept apart here. Where a SMILES comes first, the peptide text is derived from it.

Columns and labels:
[1] = test system: Aedes aegypti (Orlando strain) females; test: Host-seeking screening assay (miniport olfactometer); format: in vivo; settings: fed 1 μM in saline, tested 48 h post-meal; for Host-seeking relative to saline (test compound % host-seeking/average matched saline % host-seeking): individual replicates; for Attraction (relative to saline): per-compound value of Fig. 3C
Description: Groups of 60–150 females were placed in bucket cages with a diameter of 21.6 cm and height of 16.5 cm (VWR) and fasted with access to water for 24 h prior to feeding. Meals were delivered to females via Glytube membrane feeders as described previously. Meals consisted of 1.5 ml sheep blood (HemoStat Laboratories), saline (400 mM NaHCO3 + dih2O), or saline and test compound. Lyophilized compounds were stored at room temperature until use. High-concentration stocks (30 mM in 100% dimethyl sulfoxide [DMSO]) (Sigma-Aldrich) were stored at −20 °C and diluted in saline immediately prior to feeding. Once prepared, meals and glycerol heating elements were warmed in a 42 °C water bath for 15 min to provide warmth to attract mosquitos to feed. ATP (1 mM final concentration) and test compounds (1 μM final concentration) were added prior to placing the meal on top of the mesh on the cage containing female mosquitos. Females were allowed 15–20 min to feed to repletion. Abdominal engorgement was scored by eye and confirmed by weighing females to ensure full feeding (Data S1). […] Females were returned to their original cage with a diH2O wick for 48 h prior to behavioral testing. The lethality of each compound was measured by counting the number of dead females in each cage 24 h post-meal.
Miniport olfactometers were fabricated in-house as described previously. Information regarding design, construction, and use can be found at https://github.com/VosshallLab/Miniport-Construction. Miniport canisters consisted of a 6″ × 3″ × 3″ acrylic tube with a mesh screen to allow for air flow. Groups of 10–20 females were loaded into canisters 24 h post-meal. Females were left in canisters overnight to acclimate with two cotton balls soaked in diH20 to prevent desiccation. Behavior trials began 48 h post-meal. Canisters were randomly assigned to attraction traps 1–4 and given 5 min to acclimate. The stimulus end of the trap was connected to a flowmeter that supplied 5% CO2 at a rate of 30 ml/min. Thirty seconds of CO2 flow was supplied to activate females prior to opening the sliding door. Once opened, the sliding door gave females access to the attraction trap baited with a human-scented nylon stocking previously worn by the same experimenter for 8–10 h to collect body odor and stored in a plastic bag at −20 °C until use. After 5 min, the sliding door was closed and attraction was scored as mosquitoes in the attraction trap/total number of mosquitoes. For each experiment data were normalized to the matched average saline attraction from the same experiment (% attracted/average saline attraction). Any dead mosquitoes were excluded from the analysis. Non-fed females and blood-fed females served as environmental control groups while the saline-fed females served as the vehicle control each day. If non-fed or saline-fed females were less than 50% attracted or if blood-fed females were more than 20% attracted behavioral trials were halted and all data from that experimental day were discarded.

Ae. aegypti NPYLR7 = Ae. aegypti NPYLR7 (Aedes aegypti, UniProt U5N1H5); test: In vitro calcium (GCaMP6s) FLIPR assay in HEK293T cells transfected with NPYLR7; format: cell-based; settings: for activation at 100 µM: single replicate of the dose-response curve; for RFU: assay date 1/11/20 plate 1, duplicate wells, listed as FMFR3a
Ae. aegypti NPYLR7, sequence (U5N1H5 entry or part of it): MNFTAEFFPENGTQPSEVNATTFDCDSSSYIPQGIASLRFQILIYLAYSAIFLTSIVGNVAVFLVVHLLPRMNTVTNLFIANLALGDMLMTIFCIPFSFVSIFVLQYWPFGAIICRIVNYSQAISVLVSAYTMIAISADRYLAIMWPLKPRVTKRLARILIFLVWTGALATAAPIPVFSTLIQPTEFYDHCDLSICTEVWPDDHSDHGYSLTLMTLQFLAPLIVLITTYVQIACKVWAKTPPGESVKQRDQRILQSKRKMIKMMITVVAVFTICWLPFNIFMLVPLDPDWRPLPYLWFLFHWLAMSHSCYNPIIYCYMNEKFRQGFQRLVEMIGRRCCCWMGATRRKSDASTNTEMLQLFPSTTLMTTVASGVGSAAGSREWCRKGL
Description: The in vitro screening assay was adapted from, and carried out at HD Biosciences (HDB, Shanghai) as follows: HEK293T (Thermo Fisher Scientific) cells were grown in Dulbecco’s modified Eagle medium (DMEM) (high glucose, with glutamine), 10% fetal bovine serum, 1% penicillin–streptomycin (Pen/Strep), seeded in a 75 cm^2 flask, and incubated at 37 °C and 5% CO2. Cells were transiently transfected with 1 μg of each plasmid expressing GCaMP6s (Addgene […]) (Chen et al., 2013), mouse Gqα15 (Addgene #40753) (Offermanns and Simon, 1995) and Ae. aegypti NPYLR7 (Addgene #52392) (Duvall et al. 2019) using Lipofectamine 2000 (Invitrogen) in 4 ml of Opti-MEM (Invitrogen). This mixture was added to a plate after 20 min and incubated for 6–8 h. Cells were then trypsinized, resuspended in phenol-free media, and plated in a 384-well plate (Greiner Bio-One) at a density of 20,000 cells per 40 μl, and incubated overnight (37 °C, 5% CO2). Cells were imaged directly in phenol-free media. Plates were loaded into a Molecular Devices fluorescence imaging plate reader (FLIPR) with an excitation wavelength of 470–495 nm and an emitted wavelength of 515–575 nm. Plates were imaged every second for 5 min. After 30 s of baseline fluorescence recording, 10 μl of the test compound in reading buffer [Hank’s Balanced Salt Solution (Gibco) + 20 mM HEPES (Sigma-Aldrich)] was added. Concentrations tested ranged from 0 to 100 μM. Data were collected in raw fluorescence units (RFU).
Each test plate included replicates of 10 μM FMRFa3 (H‐Ala‐Gly‐Gln‐Gly‐Phe‐Met‐Arg‐Phe‐NH2), an Ae. aegypti neuropeptide agonist of NPYLR7 used to calculate the hundred percent effect (HPE). The zero percent effect (ZPE) control was calculated as a response to buffer alone. The Z′ factor was calculated for each plate by Z^′=1-3σHPE+3σZPE/|μHPE-μZPE| . Plates with Z′ < 0.5 were excluded from analysis. Raw fluorescence units (RFU) were converted to percent effect relative to the average of the ZPE and HPE. Percent effect = (sample luminescence − average ZPE)/(average HPE − average ZPE)×100. […] Each replicate was plotted as percent effect versus log[concentration], and replicates with maximal responses between 20 and 250% were used for EC50 calculations. Relative EC50 was calculated using an [Agonist] versus response–variable slope four-parameter model where Y=Bottom+(X^Hillslope)∗(Top-Bottom)/(X^HillSlope+EC50^HillSlope) . For compounds with multiple replicates, the relative EC50 of each replicate was averaged.

[2] = EC50 of the individual assay date/plate (assay date), read-out: EC50
[3] = Figure 1E Summary, second list (n = 48), read-out: Reported Metric (Summary list)
[4] = HEK-293T, 100 uM, normalised response
[5] = relative EC50, percent effect relative to 10 μM FMRFa3, read-out: EC50
[6] = sheet Figure 3C, unit inferred, read-out: EC50
[7] = summary EC50 per compound (mean over assay dates), the unit is taken from the neighbouring EC50 (uM) column, read-out: Reported Metric
[8] = Figure 1E Summary, third list (n = 39), read-out: Reported Metric (Summary list)
[9] = HEK-293T, single replicate, normalised response
[10] = HEK-293T, 11.1111 uM, single replicate, normalised response

Row | SMILES | Attraction (relative to saline) [1] | EC50 (Ae. aegypti NPYLR7; [2]) [µM] | EC50 (Ae. aegypti NPYLR7; [3]) [µM] | activation at 100 µM (Ae. aegypti NPYLR7; [4]) [%] | EC50 (Ae. aegypti NPYLR7; [5]) [µM] | EC50 (Ae. aegypti NPYLR7; [6]) [µM] | EC50 (Ae. aegypti NPYLR7; [7]) [µM] | EC50 (Ae. aegypti NPYLR7; [8]) [µM] | also measured
1 | CCOc1ccc2c(C)nc(NC(=N)N)nc2c1 [TDI-014177] | 0.94 | 5.6 | 5.6 | 49.6 | 5.6 | 5.6 | 5.6 | – | Host-seeking relative to saline (test compound % host-seeking/average matched saline % host-seeking) ([1]; listed as TDI-04177): 1.17 and 0.9
2 | Cc1nc(NC(=N)N)nc2cc(OCC3CCCOC3)ccc12 (stereo not shown) [TDI-014167] | 0.975 | 7.37 | 7.37 | 66.1 | 7.37 | 7.37 | 7.37 | – | Host-seeking relative to saline (test compound % host-seeking/average matched saline % host-seeking) ([1]; listed as TDI-04167): 0.97
3 | CSCC[C@H](NC(=O)[C@H](Cc1ccccc1)NC(=O)CNC(=O)[C@H](CCC(N)=O)NC(=O)CNC(=O)[C@H](C)N)C(=O)N[C@@H](CCCNC(=N)N)C(=O)N[C@@H](Cc1ccccc1)C(N)=O [FMRFa3, H‐Ala‐Gly‐Gln‐Gly‐Phe‐Met‐Arg‐Phe‐NH2, reference compound] (H-AGQGFMRF-NH2) | – | – | – | – | – | – | – | – | RFU (Ae. aegypti NPYLR7; 0.00169350878084303uM): 65 RFU and 68 RFU; RFU (Ae. aegypti NPYLR7; 0.00508052634252909uM): 68 RFU and 63 RFU; RFU (Ae. aegypti NPYLR7; 0.0152415790275873uM): 60 RFU and 54 RFU; RFU (Ae. aegypti NPYLR7; 0.0457247370827618uM): 68 RFU and 57 RFU; RFU (Ae. aegypti NPYLR7; 0.137174211248285uM): 60 RFU and 61 RFU; RFU (Ae. aegypti NPYLR7; 0.411522633744856uM): 69 RFU and 63 RFU; RFU (Ae. aegypti NPYLR7; 1.23456790123457uM): 164 RFU and 112 RFU; RFU (Ae. aegypti NPYLR7; 3.7037037037037uM): 199 RFU and 204 RFU; RFU (Ae. aegypti NPYLR7; 11.1111111111111 uM): 247 RFU and 275 RFU; RFU (Ae. aegypti NPYLR7; 33.333333 uM): 320 RFU and 317 RFU; RFU (Ae. aegypti NPYLR7; 100 uM): 354 RFU and 310 RFU
4 | Cc1nc(NC(=N)N)nc2cc(OC3CCCc4ccccc43)ccc12 (stereo not shown) [TDI-014183] | 0.88 | 13.7 | 13.7 | – | 13.7 | 13.7 | 13.7 | – | Host-seeking relative to saline (test compound % host-seeking/average matched saline % host-seeking) ([1]; listed as TDI-04183): 0.97
5 | COc1ccc(COc2ccc3c(C)nc(NC(=N)N)nc3c2)cc1OC [TDI-014180] | 0.93 | 0.00192 | – | 63.8 | 0.00192 | 0.00192 | 0.00192 | 0.00192 | Host-seeking relative to saline (test compound % host-seeking/average matched saline % host-seeking) ([1]; listed as TDI-04180): 0.93; activation at 0.0152 µM (Ae. aegypti NPYLR7; HEK-293T, 0.0152 uM, single replicate, normalised response): 42.4%; activation at 0.0457 µM (Ae. aegypti NPYLR7; HEK-293T, 0.0457 uM, single replicate, normalised response): 59.4%; activation at 0.1372 µM (Ae. aegypti NPYLR7; HEK-293T, 0.1372 uM, single replicate, normalised response): 67.9%; activation at 0.4115 µM (Ae. aegypti NPYLR7; [9]): 85.1%; activation at 3.7037 µM (Ae. aegypti NPYLR7; [9]): 96.7%; activation at 11.1111 µM (Ae. aegypti NPYLR7; [10]): 74%; activation at 33.3333 µM (Ae. aegypti NPYLR7; HEK-293T, 33.3333 uM, single replicate, normalised response): 81.8%
6 | COc1ccc(OCc2ccc3c(C)nc(NC(=N)N)nc3c2)cc1 [TDI-014175] | 0.905 | 0.547 | – | 117 | 0.548 | 0.547 | 0.547 | 0.547 | activation at 0.4115 µM (Ae. aegypti NPYLR7; [9]): 35.1%; activation at 1.2346 µM (Ae. aegypti NPYLR7; HEK-293T, 1.2346 uM, single replicate, normalised response): 65.9%; activation at 3.7037 µM (Ae. aegypti NPYLR7; [9]): 89.7%; activation at 11.1111 µM (Ae. aegypti NPYLR7; [10]): 98.4%
7 | CSCC[C@H](NC(=O)[C@H](Cc1ccccc1)NC(=O)CNC(=O)[C@H](CCC(N)=O)NC(=O)CNC(=O)[C@H](C)N)C(=O)N[C@@H](CCCNC(=N)N)C(=O)N[C@@H](Cc1ccccc1)C(N)=O [FMRF3a] (H-AGQGFMRF-NH2) | – | – | – | – | – | – | – | – | response at 0.0017(uM) (Ae. aegypti NPYLR7; 0.0017 uM, single replicate, normalised response): 2.545; response at 0.0051(uM) (Ae. aegypti NPYLR7; 0.0051 uM, single replicate, normalised response): -0.01361; EC50 (Ae. aegypti NPYLR7; EC50 (uM), EC50 of the individual assay date/plate (assay date)): 2.4 µM and 3.76 µM and 1.51 µM and 8.78 µM and 4.23 µM and 2.6 µM and 8.21 µM and 1.15 µM and 4.22 µM and 4.26 µM; EC50 (Ae. aegypti NPYLR7; Reported Metric, summary EC50 per compound (mean over assay dates), the unit is taken from the neighbouring EC50 (uM) column): 4.11 µM
8 | Cc1nc(NC(=N)N)nc2cc(OC(F)(F)F)ccc12 [TDI-012613] | – | – | – | – | 3.38 | – | – | 3.38 | EC50 (Ae. aegypti NPYLR7; Figure 1E, EC50 of the single assay date/plate, read-out: EC50): 5.42 µM and 1.34 µM; EC50 (Ae. aegypti NPYLR7; Figure 1E, metric reported per compound, repeated on every replicate line, read-out: Reported Metric (EC50)): 3.38 µM; activation at 11.1111 µM (Ae. aegypti NPYLR7; HEK-293T, compound 11.1111 uM, single replicate well, read-out: response at 11.1111): 43.1%; activation at 33.3333 µM (Ae. aegypti NPYLR7; HEK-293T, compound 33.3333 uM, single replicate well, read-out: response at 33.3333): 69.7%
